Measurements from patent US10058550B2, “Methods of treating heart failure” (priority 2015, dated 2018).

Molecular target: human APJ receptor (Homo sapiens (Human), UniProt P35414)
Test: biochemical
Type: biochemical
Details: read-out: Activity hAPJ SPA EC50 IP
Summary of the method: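 Membranes from CHO cells stably expressing cloned human APJ were incubated with WGA SPA beads in 20 mM HEPES pH 7.5, 5 mM MgCl2, 0.1% BSA, 200 mM NaCl and 3 μM GDP. Reaction started with 0.2 nM [35S]GTPγS ± ligands, 90 min at RT. EC50 obtained by non-linear regression as mean of independent experiments.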

human APJ receptor, sequence (P35414 whole entry): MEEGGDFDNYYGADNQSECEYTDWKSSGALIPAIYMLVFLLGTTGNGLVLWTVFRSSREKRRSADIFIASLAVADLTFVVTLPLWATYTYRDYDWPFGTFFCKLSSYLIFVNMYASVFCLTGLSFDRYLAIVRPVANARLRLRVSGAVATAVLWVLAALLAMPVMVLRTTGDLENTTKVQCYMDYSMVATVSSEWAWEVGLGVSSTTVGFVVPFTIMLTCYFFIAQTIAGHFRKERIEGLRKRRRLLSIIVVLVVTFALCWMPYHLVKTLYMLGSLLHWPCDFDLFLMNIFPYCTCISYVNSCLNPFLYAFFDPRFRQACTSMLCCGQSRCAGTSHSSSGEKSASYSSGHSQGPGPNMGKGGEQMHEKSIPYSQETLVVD

## COc1cccc(OC(F)F)c1-n1c(NS(=O)(=O)[C@@H](C)[C@H](OC)c2ncc(C)cn2)nnc1-c1cccnc1 [Example 667.0, (1R,2S,P)-N-(4-(2-(difluoromethoxy)-6-methoxyphenyl)-5-(3-pyridinyl)-4H-1,2,4-triazol-3-yl)-1-methoxy-1-(5-methyl-2-pyrimidinyl)-2-propanesulfonamide and (1R,2S,M)-N-(4-(2-(difluoromethoxy)-6-methoxyphenyl)-5-(3-pyridinyl)-4H-1,2,4-triazol-3-yl)-1-methoxy-1-(5-methyl-2-pyrimidinyl)-2-propanesulfonamide]
  EC50: 2.6 nM

## COc1cccc(OC(F)F)c1-n1c(NS(=O)(=O)[C@@H](C)[C@H](OC)c2ncc(C)cn2)nnc1-c1cncc(C)c1 [Example 668.0, (1R,2S,P)-N-(4-(2-(difluoromethoxy)-6-methoxyphenyl)-5-(5-methyl-pyridinyl)-4H-1,2,4-triazol-3-yl)-1-methoxy-1-(5-methyl-2-pyrimidinyl)-2-propanesulfonamide and (1R,2S,M)-N-(4-(2-(difluoromethoxy)-6-methoxyphenyl)-5-(5-methyl-3-pyridinyl)-4H-1,2,4-triazol-3-yl)-1-methoxy-1-(5-methyl-2-pyrimidinyl)-2-propanesulfonamide]
  EC50: 0.76 nM

## CO[C@H](c1ncc(C)cn1)[C@H](C)S(=O)(=O)Nc1nnc(-c2cccnc2)n1-c1c(OC(F)F)cccc1OC(F)F [Example 669.0, (1R,2S)-N-(4-(2,6-bis(difluoromethoxy)phenyl)-5-(3-pyridinyl)-4H-1,2,4-triazol-3-yl)-1-methoxy-1-(5-methyl-2-pyrimidinyl)-2-propanesulfonamide]
  EC50: 2.7 nM

## CO[C@H](c1ncc(C)cn1)[C@H](C)S(=O)(=O)Nc1nnc(-c2cncc(C)c2)n1-c1c(OC(F)F)cccc1OC(F)F [Example 670.0, (1R,2S)-N-(4-(2,6-bis(difluoromethoxy)phenyl)-5-(5-methyl-3-pyridinyl)-4H-1,2,4-triazol-3-yl)-1-methoxy-1-(5-methyl-2-pyrimidinyl)-2-propanesulfonamide]
  EC50: 0.55 nM

## CO[C@H](c1ncc(C)cn1)[C@H](C)S(=O)(=O)Nc1nnc(-c2cncc(C)c2)n1-c1c(Cl)cccc1Cl [Example 675.0, (1R,2S)-N-(4-(2,6-dichlorophenyl)-5-(5-methyl-3-pyridinyl)-4H-1,2,4-triazol-3-yl)-1-methoxy-1-(5-methyl-2-pyrimidinyl)-2-propanesulfonamide 2,2,2-trifluoroacetate]
  EC50: 2.6 nM

## COc1cccc(-c2nnc(NS(=O)(=O)CCc3ncc(F)cn3)n2-c2c(OC)cccc2OC)n1 [Example 676.0, N-(4-(2,6-dimethoxyphenyl)-5-(6-methoxy-2-pyridinyl)-4H-1,2,4-triazol-3-yl)-2-(5-fluoro-2-pyrimidinyl)ethanesulfonamide 2,2,2-trifluoroacetate]
  EC50: 6 nM

## CO[C@H](c1ncc(C)cn1)[C@H](C)S(=O)(=O)Nc1nnc(-c2cncc(C)c2)n1-c1c(F)cccc1F [Example 677.0, (1R,2S)-N-(4-(2,6-difluorophenyl)-5-(5-methylpyridin-3-yl)-4H-1,2,4-triazol-3-yl)-1-methoxy-1-(5-methylpyrimidin-2-yl)propane-2-sulfonamide 2,2,2-trifluoroacetate]
  EC50: 7.2 nM

## COc1cnc([C@@H](C)[C@H](C)S(=O)(=O)Nc2nnc(-c3cncc(C)c3)n2-c2c(OC)cccc2OC)nc1 [Example 682.0, (2S,3R)-N-(4-(2,6-dimethoxyphenyl)-5-(5-methyl-3-pyridinyl)-4H-1,2,4-triazol-3-yl)-3-(5-methoxy-2-pyrimidinyl)-2-butanesulfonamide 2,2,2-trifluoroacetate]
  EC50: 0.2 nM

## COc1cccc(-c2nnc(NS(=O)(=O)[C@@H](C)[C@H](OC)c3ncc(C)cn3)n2-c2c(F)cccc2F)n1 [Example 684.0, (1R,2S)-N-(4-(2,6-difluorophenyl)-5-(6-methoxy-2-pyridinyl)-4H-1,2,4-triazol-3-yl)-1-methoxy-1-(5-methyl-2-pyrimidinyl)-2-propanesulfonamide]
  EC50: 0.81 nM

## COc1cnc([C@@H](OC)[C@@H](C)S(=O)(=O)Nc2nnc(-c3cncc(C)c3)n2-c2c(OC)cccc2OC)nc1 [Example 687.0, (1R,2R)-N-(4-(2,6-dimethoxyphenyl)-5-(5-methyl-3-pyridinyl)-4H-1,2,4-triazol-3-yl)-1-methoxy-1-(5-methoxy-2-pyrimidinyl)-2-propanesulfonamide 2,2,2-trifluoroacetate]
  EC50: 4.7 nM

## COc1ncnc(OC)c1-n1c(NS(=O)(=O)[C@@H](C)[C@H](C)c2ncc(Cl)cn2)nnc1-c1cccnc1 [Example 709.0, (2S,3R)-3-(5-chloro-2-pyrimidinyl)-N-(4-(4,6-dimethoxy-5-pyrimidinyl)-5-(3-pyridinyl)-4H-1,2,4-triazol-3-yl)-2-butanesulfonamide]
  EC50: 0.71 nM

## COc1cccc(-c2nnc(NS(=O)(=O)[C@@H](C)[C@H](C)c3ncc(Cl)cn3)n2-c2c(OC)ncnc2OC)n1 [Example 710.0, (2S,3R)-3-(5-chloro-2-pyrimidinyl)-N-(4-(4,6-dimethoxy-5-pyrimidinyl)-5-(6-methoxy-2-pyridinyl)-4H-1,2,4-triazol-3-yl)-2-butanesulfonamide]
  EC50: 0.21 nM

## COc1cccc(OC)c1-n1c(NS(=O)(=O)[C@@H](C)[C@@H](OC(C)C)c2ncc(C)cn2)nnc1-c1cccc(C)n1 [Example 738.0, (1S,2S)-N-(4-(2,6-dimethoxyphenyl)-5-(6-methylpyridin-2-yl)-4H-1,2,4-triazol-3-yl)-1-isopropoxy-1-(5-methylpyrimidin-2-yl)propane-2-sulfonamide]
  EC50: 0.1 nM

## COc1cccc(OC)c1-n1c(NS(=O)(=O)[C@@H](C)[C@H](OC)c2ncc(C3=CCOCC3)cn2)nnc1-c1cncc(C)c1 [Example 749.0, (1R,2S)-1-(5-(3,6-dihydro-2H-pyran-4-yl)pyrimidin-2-yl)-N-(4-(2,6-dimethoxyphenyl)-5-(5-methylpyridin-3-yl)-4H-1,2,4-triazol-3-yl)-1-methoxypropane-2-sulfonamide]
  EC50: 15 nM

## COc1cccc(OC)c1-n1c(NS(=O)(=O)[C@@H](C)[C@H](OC)c2ncc(-c3cccnc3)cn2)nnc1-c1cncc(C)c1 [Example 752.0, (1R,2S)—N-(4-(2,6-dimethoxyphenyl)-5-(5-methylpyridin-3-yl)-4H-1,2,4-triazol-3-yl)-1-methoxy-1-(5-(pyridin-3-yl)pyrimidin-2-yl)propane-2-sulfonamide]
  EC50: 3.6 nM

## Cc1cnc([C@@H](C)[C@H](C)S(=O)(=O)Nc2nnc(-c3cncc(C)c3)n2-c2c(OC(F)F)cccc2OC(F)F)nc1 [Example 763.0, (2S,3R)—N-(4-(2,6-bis(difluoromethoxy)phenyl)-5-(5-methylpyridin-3-yl)-4H-1,2,4-triazol-3-yl)-3-(5-methylpyrimidin-2-yl)butane-2-sulfonamide]
  EC50: 0.71 nM

## COc1ncnc(OC)c1-n1c(NS(=O)(=O)[C@@H](C)[C@H](C)c2cnc(C)cn2)nnc1-c1ccccn1 [Example 773.0, (2S,3R)-N-(4-(4,6-dimethoxy-5-pyrimidinyl)-5-(2-pyridinyl)-4H-1,2,4-triazol-3-yl)-3-(5-methyl-2-pyrazinyl)-2-butanesulfonamide]
  EC50: 14 nM

## COc1cccc(OC)c1-n1c(NS(=O)(=O)[C@@H](C)[C@H](C)c2cnc(C)cn2)nnc1-c1ccccn1 [Example 774.0, (2S,3R)-N-(4-(2,6-dimethoxyphenyl)-5-(2-pyridinyl)-4H-1,2,4-triazol-3-yl)-3-(5-methyl-2-pyrazinyl)-2-butanesulfonamide]
  EC50: 8.2 nM

## COc1cccc(OC)c1-n1c(NS(=O)(=O)[C@@H](C)[C@H](C)c2ncc(C)cn2)nnc1-c1ccccn1 [Example 775.0, (2S,3R)-N-(4-(2,6-dimethoxyphenyl)-5-(2-pyridinyl)-4H-1,2,4-triazol-3-yl)-3-(5-methyl-2-pyrimidinyl)-2-butanesulfonamide]
  EC50: 2.1 nM

## COc1ncnc(OC)c1-n1c(NS(=O)(=O)[C@@H](C)[C@H](C)c2ncc(C)cn2)nnc1-c1ccccn1 [Example 776.0, (2S,3R)-N-(4-(4,6-dimethoxy-5-pyrimidinyl)-5-(2-pyridinyl)-4H-1,2,4-triazol-3-yl)-3-(5-methyl-2-pyrimidinyl)-2-butanesulfonamide]
  EC50: 3.9 nM

## COc1ncnc(OC)c1-n1c(NS(=O)(=O)[C@@H](C)[C@@H](OC(C)C)c2ncc(C)cn2)nnc1-c1ccccn1 [Example 777.0, (1S,2S)-N-(4-(4,6-dimethoxy-5-pyrimidinyl)-5-(2-pyridinyl)-4H-1,2,4-triazol-3-yl)-1-(1-methylethoxy)-1-(5-methyl-2-pyrimidinyl)-2-propanesulfonamide]
  EC50: 2.2 nM

## COc1cccc(OC)c1-n1c(NS(=O)(=O)[C@@H](C)[C@@H](OC(C)C)c2ncc(C)cn2)nnc1-c1ccccn1 [Example 778.0, (1S,2S)-N-(4-(2,6-dimethoxyphenyl)-5-(2-pyridinyl)-4H-1,2,4-triazol-3-yl)-1-(1-methylethoxy)-1-(5-methyl-2-pyrimidinyl)-2-propanesulfonamide]
  EC50: 0.77 nM

## COc1ncnc(OC)c1-n1c(NS(=O)(=O)[C@@H](C)[C@H](OC)c2cnc(C)cn2)nnc1-c1ccccn1 [Example 779.0, (1R,2S)-N-(4-(4,6-dimethoxy-5-pyrimidinyl)-5-(2-pyridinyl)-4H-1,2,4-triazol-3-yl)-1-methoxy-1-(5-methyl-2-pyrazinyl)-2-propanesulfonamide]
  EC50: 17 nM

## COc1cccc(OC)c1-n1c(NS(=O)(=O)[C@@H](C)[C@H](OC)c2cnc(C)cn2)nnc1-c1ccccn1 [Example 780.0, (1R,2S)-N-(4-(2,6-dimethoxyphenyl)-5-(2-pyridinyl)-4H-1,2,4-triazol-3-yl)-1-methoxy-1-(5-methyl-2-pyrazinyl)-2-propanesulfonamide]
  EC50: 8.8 nM

## Cc1cnc([C@@H](C)[C@H](C)S(=O)(=O)Nc2nnc(-c3cccc(C)n3)n2-c2c(F)cccc2F)nc1 [Example 783.0, (2S,3R)-N-(4-(2,6-difluorophenyl)-5-(6-methyl-2-pyridinyl)-4H-1,2,4-triazol-3-yl)-3-(5-methyl-2-pyrimidinyl)-2-butanesulfonamide]
  EC50: 4.2 nM
